According to paper PMC4744546 (Pharmaceutical research, 2015):
Read-outs that look alike come from different tables or passages of the source.

Columns and labels:
[1] = test system: colon cancer cell lines; settings: ref [18]; cited from earlier work
[2] = assay type: in vivo, FVB wild-type mice
[3] = humans; ref [16]; cited from earlier work
[4] = Pharmacokinetic study of oral resveratrol with or without curcumin in Bcrp1; assay type: in vivo, Bcrp1 (−/−) mice (FVB background); settings: for Cmax / Tmax / half-life: FVB, mouse, whole blood, po, 20 mg/kg, oral resveratrol 20mg/kg; for Cmax: blood
[5] = Characterization of resveratrol metabolites in pooled human liver S9 fraction; assay type: in vitro ADME
[6] = test system: BCRP; settings: oral sulfasalazine, curcumin pretreatment vs none, ref [37]; cited from earlier work
[7] = target: T1, BCRP (Homo sapiens, UniProt Q9UNQ0); experiment: Effect of curcumin on BCRP-mediated efflux; assay type: cell-based; settings: UGT1A9-overexpressing HeLa cells
T1 sequence (Q9UNQ0 1-655): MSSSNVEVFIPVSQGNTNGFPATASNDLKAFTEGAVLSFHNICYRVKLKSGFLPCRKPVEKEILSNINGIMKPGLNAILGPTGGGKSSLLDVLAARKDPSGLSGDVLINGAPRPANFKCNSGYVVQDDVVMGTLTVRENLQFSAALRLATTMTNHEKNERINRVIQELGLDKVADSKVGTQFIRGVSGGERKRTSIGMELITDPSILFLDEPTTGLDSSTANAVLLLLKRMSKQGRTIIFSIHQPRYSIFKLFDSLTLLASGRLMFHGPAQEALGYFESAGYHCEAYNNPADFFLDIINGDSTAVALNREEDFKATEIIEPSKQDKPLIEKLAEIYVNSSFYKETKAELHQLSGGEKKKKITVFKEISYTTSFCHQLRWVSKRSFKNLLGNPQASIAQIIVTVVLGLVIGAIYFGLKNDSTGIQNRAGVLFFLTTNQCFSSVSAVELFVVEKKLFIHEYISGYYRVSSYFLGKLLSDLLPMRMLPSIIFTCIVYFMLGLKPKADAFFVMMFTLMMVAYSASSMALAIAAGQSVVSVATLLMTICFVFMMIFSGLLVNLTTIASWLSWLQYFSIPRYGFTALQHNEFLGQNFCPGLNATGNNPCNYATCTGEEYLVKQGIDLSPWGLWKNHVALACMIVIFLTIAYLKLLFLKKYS

[8] = test system: human MRP2-overexpressing MDCK II-UGT1A1 cells; experiment: Effect of curcumin on fmet of resveratrol conjugates in MDCK II cells; assay type: cell-based; settings: 4 h
[9] = target: human MRP2 (Homo sapiens, UniProt Q92887); experiment: Effect of curcumin on MRP2-mediated efflux; assay type: cell-based; settings: MRP2-overexpressing MDCK II-UGT1A1 cells
[10] = FVB, mouse, whole blood, po, 20 mg/kg
[11] = WT mice with curcumin vs without, resveratrol 20mg/kg oral
[12] = curcumin 50nM, resveratrol […], 4 h, p<0.01
[13] = curcumin 50nM, resveratrol […], 4 h, p<0.05

human MRP2, sequence (Q92887 whole entry): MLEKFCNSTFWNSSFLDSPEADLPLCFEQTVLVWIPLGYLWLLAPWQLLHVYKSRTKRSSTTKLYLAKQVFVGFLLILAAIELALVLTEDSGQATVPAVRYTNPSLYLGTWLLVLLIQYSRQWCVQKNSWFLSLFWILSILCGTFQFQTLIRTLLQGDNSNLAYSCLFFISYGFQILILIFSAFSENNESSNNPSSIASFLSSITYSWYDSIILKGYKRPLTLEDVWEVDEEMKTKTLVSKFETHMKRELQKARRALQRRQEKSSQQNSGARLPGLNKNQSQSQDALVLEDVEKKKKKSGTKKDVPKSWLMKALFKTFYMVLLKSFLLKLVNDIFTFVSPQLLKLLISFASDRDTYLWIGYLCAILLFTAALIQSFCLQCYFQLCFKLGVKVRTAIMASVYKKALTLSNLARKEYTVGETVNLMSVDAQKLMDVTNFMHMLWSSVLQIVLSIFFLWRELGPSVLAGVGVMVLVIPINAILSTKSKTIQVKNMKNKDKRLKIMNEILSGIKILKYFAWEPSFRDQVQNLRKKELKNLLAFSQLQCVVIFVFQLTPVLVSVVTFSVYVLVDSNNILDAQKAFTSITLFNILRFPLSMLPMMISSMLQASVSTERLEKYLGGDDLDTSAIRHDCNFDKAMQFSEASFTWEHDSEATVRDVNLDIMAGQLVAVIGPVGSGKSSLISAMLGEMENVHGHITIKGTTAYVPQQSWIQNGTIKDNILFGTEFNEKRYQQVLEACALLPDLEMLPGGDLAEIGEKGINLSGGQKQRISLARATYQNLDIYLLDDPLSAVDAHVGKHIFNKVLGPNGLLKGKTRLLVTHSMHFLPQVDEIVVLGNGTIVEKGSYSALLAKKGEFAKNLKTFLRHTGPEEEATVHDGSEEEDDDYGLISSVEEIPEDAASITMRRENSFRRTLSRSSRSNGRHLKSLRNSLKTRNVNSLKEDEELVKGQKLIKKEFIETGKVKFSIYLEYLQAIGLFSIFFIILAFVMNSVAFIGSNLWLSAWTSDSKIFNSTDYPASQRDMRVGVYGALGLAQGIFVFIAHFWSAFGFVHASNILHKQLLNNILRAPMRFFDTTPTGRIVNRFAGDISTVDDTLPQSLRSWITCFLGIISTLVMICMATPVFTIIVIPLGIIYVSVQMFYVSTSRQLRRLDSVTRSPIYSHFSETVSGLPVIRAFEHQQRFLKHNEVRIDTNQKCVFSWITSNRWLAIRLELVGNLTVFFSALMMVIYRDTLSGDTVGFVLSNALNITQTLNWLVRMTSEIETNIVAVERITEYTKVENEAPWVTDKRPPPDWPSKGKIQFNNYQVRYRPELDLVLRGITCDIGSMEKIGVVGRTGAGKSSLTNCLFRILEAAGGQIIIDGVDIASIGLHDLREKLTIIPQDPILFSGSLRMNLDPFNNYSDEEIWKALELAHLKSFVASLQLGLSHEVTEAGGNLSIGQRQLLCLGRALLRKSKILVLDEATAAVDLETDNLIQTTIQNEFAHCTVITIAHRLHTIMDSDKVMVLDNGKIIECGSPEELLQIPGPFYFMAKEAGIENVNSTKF

## O=C(O)[C@H]1O[C@@H](Oc2cc(O)cc(/C=C/c3ccc(O)cc3)c2)[C@H](O)[C@@H](O)[C@@H]1O [R-3-G, resveratrol-3-O-glucuronide]
[1]
  IC50 of cell growth inhibition compared to parent compound: comparable

## O=S(=O)(O)Oc1cc(O)cc(C=Cc2ccc(O)cc2)c1 [R-3-S, resveratrol-3-O-sulfate]
[2]; [10]
  Cmax: 1320 ± 710 nM
[2]; FVB, mouse, whole blood, po, 20 mg/kg, Tmax, WT with curcumin, oral resveratrol 20mg/kg
  Tmax: 0.31 ± 0.12 h
[2]; FVB, mouse, whole blood, po, 20 mg/kg, t1/2, WT control, oral resveratrol 20mg/kg without curcumin
  half-life: 3.77 ± 1.74 h
[2]; FVB, mouse, whole blood, po, 20 mg/kg, t1/2, WT with curcumin, oral resveratrol 20mg/kg
  half-life: 9.32 ± 5.64 h
[3]
  peak plasma levels relative to that of resveratrol: 3- to 8 fold
[4]; Bcrp1 (−/−) with curcumin
  Cmax: 1800 ± 170 nM
  Tmax: 0.25 h
[4]; Bcrp1 (−/−) without curcumin
  Cmax: 2400 ± 980 nM
  Tmax: 0.25 h
[4]; t1/2, Bcrp1 (−/−) with curcumin
  half-life: 5.82 ± 2.55 h
[4]; t1/2, Bcrp1 (−/−) without curcumin
  half-life: 4.41 ± 0.44 h

## O=C(O)[C@H]1O[C@@H](Oc2ccc(/C=C/c3cc(O)cc(O)c3)cc2)[C@H](O)[C@@H](O)[C@@H]1O [RES-4′-O-G, resveratrol-4′-O-glucuronide]
[5]
  amount of metabolite generated relative to the 3-O conjugate: about one fifth
[1]
  IC50 of cell growth inhibition compared to parent compound: comparable
[3]
  peak plasma levels relative to that of resveratrol: 3- to 8 fold

## Oc1ccc(/C=C/c2cc(O)cc(O)c2)cc1 [Resveratrol, trans-3,5,4′-trihydroxystilbene]
[2]; [10]
  Cmax: 600 ± 260 nM
[2]; [11]
  increase of AUC with curcumin: 2 fold
  increase of maximum blood concentration (Cmax) with curcumin: ~100%
[4]; Bcrp1 (−/−) with curcumin
  Cmax: 390 ± 170 nM
[4]; Bcrp1 (−/−) without curcumin
  Cmax: 790 ± 440 nM
  Tmax: 0.31 ± 0.12 h
[4]; curcumin-treated vs curcumin-untreated Bcrp1 (−/−) mice
  change in AUC with curcumin: decreased moderately

## O=C(O)c1cc(/N=N/c2ccc(S(=O)(=O)Nc3ccccn3)cc2)ccc1O [SASP, sulfasalazine]
[6]
  plasma level in mice pretreated with curcumin: two folds higher

## COc1cc(/C=C/C(=O)CC(=O)/C=C/c2ccc(O)c(OC)c2)ccc1O [curcumin, diferuoyl methane]
[7]; [12]
  decrease of CL of RES-3-O-G: 28%
[7]; [13]
  decrease of CL of RES-3-O-S: 35%
[7]; curcumin 100nM vs 50nM
  inhibitory effect on CL at higher concentration: no greater extent of inhibitory effect
[7]; curcumin 100nM, 50nM, resveratrol […], 4 h
  inhibitory effect on CL of RES-4′-G: did not show any significant inhibitory effect
[8]; curcumin 200nM, p<0.05
  decrease in fmet of RES-4′-O-G: ~20%
[8]; curcumin 200nM, p>0.05
  reduction in fmet of RES-3-O-G: ~12%
[8]; curcumin 500nM, p<0.01
  decrease in fmet of RES-4′-O-G: approximately 24%
[8]; curcumin 500nM, p<0.05
  reduction in fmet of RES-3-O-G: ~14%
[8]; curcumin 1000nM, p<0.01
  decrease in fmet of RES-4′-O-G: about 33%
[8]; curcumin 1000nM, p<0.05
  reduction in fmet of RES-3-O-G: approximately 24%
[8]; lower concentrations of curcumin (100nM, 50nM)
  change in fmet values for all metabolites: no significant change
[9]; curcumin 50nM, resveratrol […], 4 h, p<0.001
  reduction of CL of RES-3-O-G: 46%
[9]; [12]
  reduction of CL of RES-4′-O-G: 50%
[9]; [13]
  reduction of CL of RES-3-O-S: 53%
  reduction of CL of RES-4′-O-S: 54%
[9]; curcumin 100nM vs 50nM
  inhibitory effect on CL at higher concentration: no greater concentration-dependent inhibitory effect
